Laboratory results as given in patent publication US10150737B2, “Compounds for controlling arthropods” (priority 2013, dated 2018).

Legend:
[1] = test system: Musca domestica; assay: Musca domestica test; format: in vivo; conditions: adult houseflies, after 2 days
Protocol: (§1) Solvent: dimethyl sulphoxide
(§2) To produce an appropriate active ingredient formulation, 10 mg of active ingredient are mixed with 0.5 ml of dimethyl sulphoxide, and the concentrate is diluted with water to the desired concentration.
Vessels containing a sponge treated with sugar solution and the active ingredient formulation of the desired concentration are populated with 10 adult houseflies (Musca domestica).
After 2 days, the kill in % is determined. 100% means that all of the flies have been killed; 0% means that none of the flies have been killed.

[2] = test system: Boophilus microplus; assay: Boophilus microplus - injection test; format: in vivo; conditions: application rate 20 μg/animal, injection into engorged adult female ticks, after 7 days
Summary of the method: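 Active ingredient in DMSO, 1 μl injected into the abdomen of 5 engorged adult female ticks, then held in a climate-controlled room. Efficacy scored after 7 days from laying of fertile eggs, with non-fertile-looking eggs kept about 42 days for larval hatch; 100% means no fertile eggs.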

[3] = test system: Phaedon cochleariae; assay: Phaedon cochleariae - spray test; format: in vivo; conditions: larvae on Chinese cabbage leaf discs, after 7 days
Summary of the method: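 Chinese cabbage leaf discs sprayed with compound formulated in acetone/DMF and water containing 1000 ppm emulsifier; once dry, infested with mustard beetle larvae. Efficacy (% larvae killed) scored after 7 days.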

[4] = test system: Lucilia cuprina; assay: Lucilia cuprina test; format: in vivo; conditions: application rate 100 ppm; L1 larvae; after 2 days
Protocol: as §1, §2
About 20 L1 larvae of the Australian sheep blowfly (Lucilia cuprina) are transferred into a test vessel containing minced horsemeat and the active ingredient preparation of the desired concentration.
After 2 days, the kill in % is determined. 100% means that all the larvae have been killed; 0% means that none of the larvae have been killed.

[5] = test system: Ctenocephalides felis; assay: Ctenocephalides felis - oral test; format: in vivo; conditions: application rate 100 ppm in citrated cattle blood; after 2 days
Protocol: as §1
For the purpose of producing an appropriate active ingredient formulation, 10 mg of active ingredient are mixed with 0.5 ml of dimethyl sulphoxide. Dilution with citrated cattle blood gives the desired concentration.
About 20 unfed adult cat fleas (Ctenocephalides felis) are placed into a chamber which is closed at the top and bottom with gauze. A metal cylinder whose bottom end is closed with parafilm is placed onto the chamber. The cylinder contains the blood/active ingredient preparation, which can be imbibed by the fleas through the parafilm membrane.
After 2 days, the kill in % is determined. 100% means that all of the fleas have been killed; 0% means that none of the fleas have been killed.

[6] = logP determination by HPLC on a reversed-phase column (C18); format: physicochemical; conditions: for logP^a): HPLC-MS method a); for log P: HPLC-MS
[7] = test system: Spodoptera frugiperda; assay: Spodoptera frugiperda - spray test; format: in vivo; conditions: caterpillars on maize leaf discs, after 7 days
Protocol: (§3) Solvent: 78.0 parts by weight of acetone and 1.5 parts by weight of dimethylformamide
(§4) Emulsifier: alkylaryl polyglycol ether
(§5) To produce an appropriate active ingredient formulation, 1 part by weight of active ingredient is dissolved using the specified parts by weight of solvent and made up with water containing an emulsifier concentration of 1000 ppm until the desired concentration is attained. To produce further test concentrations, the preparation is diluted with emulsifier-containing water.
Leaf discs of maize (Zea mays) are sprayed with an active ingredient formulation of the desired concentration and, after drying, populated with caterpillars of the armyworm (Spodoptera frugiperda).
After 7 days, efficacy in % is determined. 100% means that all the caterpillars have been killed; 0% means that no caterpillars have been killed.

[8] = test system: Tetranychus urticae; assay: Tetranychus urticae - spray test, OP-resistant; format: in vivo; conditions: bean leaf discs, after 6 days
Protocol: as §3, §4, §5
Discs of bean leaves (Phaseolus vulgaris) infested by all stages of the greenhouse red spider mite (Tetranychus urticae) are sprayed with an active ingredient formulation of the desired concentration.
After 6 days, efficacy in % is determined. 100% means that all the spider mites have been killed; 0% means that none of the spider mites have been killed.

[9] = reversed-phase column (C18), Table I-T3

| Compound | efficacy (kill) ([1]; application rate 100 ppm) | efficacy (laying of fertile eggs) [2] | efficacy ([3]; application rate 100 g/ha) | efficacy (kill) [4] | efficacy (kill) [5] | logP^a) [6] | logP^a) [6, 9] | efficacy (kill) ([1]; application rate 4 ppm) | efficacy ([3]; application rate 500 g/ha) | efficacy ([7]; application rate 100 g/ha) | efficacy ([8]; application rate 100 g/ha) | efficacy ([7]; application rate 500 g/ha) | efficacy ([8]; application rate 500 g/ha) | pest or weed control at 0.02 mg ([2]; Rhipicephalus microplus, 168 h, read-out: efficacy (laying of fertile eggs)) | logP^a) ([6]; reversed-phase column (C18)) | log P [6, 9] |
| --- | --- | --- | --- | --- | --- | --- | --- | --- | --- | --- | --- | --- | --- | --- | --- | --- |
| Cc1cc(C(F)(C(F)(F)F)C(F)(F)F)cc(C)c1-n1cc(-c2ccc(Cl)c(C(=O)NC3(C(F)(F)F)CC3)c2)cn1 [I-T3-5] | 100% | 100% | 100% | 100% | 100% | 4.6 | 4.6 |  |  |  |  |  |  |  |  |  |
| O=C(NC1CC1)c1cc(-c2cnn(-c3ccc(C(F)(C(F)(F)F)C(F)(F)F)cc3OC(F)(F)F)c2)ccc1Cl [I-T3-35] |  | 100% |  | 100% | 100% | 4.7 | 4.7 | 80% | 100% | 83% |  |  |  |  |  |  |
| CCc1cc(C(F)(C(F)(F)F)C(F)(F)F)ccc1-n1cc(-c2ccc(Cl)c(C(=O)NC3CSC3)c2)cn1 [I-T3-41] |  | 100% | 100% | 90% | 95% | 4.9 | 4.9 |  |  | 100% | 100% |  |  |  |  |  |
| CCc1cc(C(F)(C(F)(F)F)C(F)(F)F)cc(C)c1-n1cc(-c2ccc(Cl)c(C(=O)NCC(F)(F)F)c2)cn1 [I-T3-45] |  | 100% |  | 100% | 95% | 5.0 | 5.0 |  | 100% |  |  | 100% | 100% |  |  |  |
| CCc1cc(C(F)(C(F)(F)F)C(F)(F)F)cc(C)c1-n1cc(-c2ccc(Cl)c(C(=O)NC3(C#N)CC3)c2F)cn1 [I-T3-66] | 80% | 100% |  | 100% | 100% | 4.6 | 4.6 |  | 100% |  |  | 100% |  |  |  |  |
| CCc1cc(C(F)(C(F)(F)F)C(F)(F)F)cc(C)c1-n1cc(-c2ccc(Cl)c(C(=O)NC3CC3)c2F)cn1 [I-T3-68] | 80% | 100% |  | 100% | 100% | 4.6 | 4.8 |  | 100% |  |  | 100% |  |  |  |  |
| CCc1cc(C(F)(C(F)(F)F)C(F)(F)F)cc(C)c1-n1cc(-c2cccc(C(=O)NC3(C#N)CC3)c2F)cn1 [I-T3-69] |  | 100% |  | 95% | 100% | 4.3 | 4.5 |  | 100% |  |  | 100% | 100% |  |  |  |
| CCc1cc(C(F)(C(F)(F)F)C(F)(F)F)cc(C)c1-n1cc(-c2cccc(C(=O)NC3CC3)c2F)cn1 [I-T3-70] |  | 100% |  | 100% | 95% | 4.3 | 4.7 |  | 100% |  |  | 100% | 90% |  |  |  |
| CCc1cc(C(F)(C(F)(F)F)C(F)(F)F)ccc1-n1cc(-c2cncc(C(=O)NC3(C#N)CC3)c2)cn1 [I-T3-78] |  | 100% |  | 100% | 100% | 3.2 | 3.8 |  | 100% |  |  | 100% | 100% |  |  |  |
| CCc1cc(C(F)(C(F)(F)F)C(F)(F)F)ccc1-n1cc(-c2cncc(C(=O)NC3CC3)c2)cn1 [I-T3-79] | 80% | 100% |  | 80% | 95% | 3.3 | 3.3 |  | 100% |  |  | 100% |  |  |  |  |
| CCc1cc(C(F)(F)C(F)(F)F)cc(C)c1-n1cc(-c2ccc(Cl)c(C(=O)NCC(F)(F)F)c2)cn1 [I-T3-82] |  | 100% | 100% | 100% | 95% | 4.0 | 4.0 |  |  | 100% | 100% |  |  |  |  |  |
| CCc1cc(C(F)(F)C(F)(F)F)cc(C)c1-n1cc(-c2ccc(Cl)c(C(=O)NC3CSC3)c2)cn1 [I-T3-83] |  | 100% | 100% | 100% | 95% | 4.6 | 4.6 |  |  | 100% | 100% |  |  |  |  |  |
| Cc1cc(C(F)(C(F)(F)F)C(F)(F)F)cc(C)c1-n1cc(-c2ncc(Cl)c(C(=O)NC3CC3)n2)cn1 [I-T3-121, 5-chloro-N-cyclopropyl-2-[1-[2,6-dimethyl-4-[1,2,2,2-tetrafluoro-1-(trifluoromethyl)ethyl]phenyl]pyrazol-4-yl]pyrimidine-4-carboxamide] | 80% |  |  |  |  |  |  |  |  |  |  |  |  | 80% |  |  |
| COc1ncc(-c2cnn(-c3c(C)cc(C(F)(C(F)(F)F)C(F)(F)F)cc3C)c2)cc1C(=O)N(C)C1CC1 [I-T3-144] | 100% | 100% | 100% | 100% | 90% |  |  |  |  |  |  |  |  |  | 4.4 | 4.4 |
| N#CC1(NC(=O)c2cc(-c3cnn(-c4ncc(C(F)(F)F)cc4C(F)(F)F)c3)ccc2Cl)CC1 [I-T3-149] | 100% | 100% | 100% | 100% | 100% |  |  |  |  |  |  |  |  |  | 3.5 | 3.5 |
| O=C(NC1CC1)c1cc(-c2cnn(-c3ncc(C(F)(F)F)cc3C(F)(F)F)c2)ccc1Cl [I-T3-150] | 100% | 100% |  | 100% | 100% |  |  |  |  |  |  |  |  |  | 3.6 | 3.6 |
